The structures appear in SMILES notation.

This data set is described as follows: gradient 5% acetonitrile 3 min, to 50% in 2 min, to 85% in 15 min, held 3 min, 100 µL/min. Particulars: column: Zorbax Extend-C18 2.1 x 50 mm; eluents: water / acetonitrile, 0.1% formic acid. In outline:
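Values are retention times taken from adduct peaks that software picked and an analyst inspected. The pure standards were run as mixtures of ~100 molecules on HPLC linked to a quadrupole time-of-flight mass spectrometer, in positive and negative ionization mode. A Zorbax Extend-C18 column (2.1 × 50 mm, 1.8 μm) was used at 100 μL/min with water and acetonitrile, each including 0.1% formic acid.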
`O=C(c1cn(-c2cc(N3CCCCC3)ncn2)cn1)N1CCSCC1` had an RP-LC retention time of 789 s. `Cc1cc2n(n1)CCC(=O)N2CCCC(=O)NCc1ccco1` gave an RP-LC retention time of 619 s. Then `CCn1cc(-c2nc(C)c(C(=O)NCc3ccc(C)o3)s2)c2cccnc21`, with 912 s; and `O=C(C1CCN(c2nc3ccc(-c4ccc(F)cc4)nc3s2)CC1)N1CCCC1`, with 944 s; and `Cc1cc2c(cc1NC(=O)C1CCC(C)CC1)n(C)c(=O)c(=O)n2C` (stereo unspecified), with 733 s.

With `CS(=O)(=O)N1CCCc2cc(C(=O)NCCCN3CCOCC3)ccc21`, the RP-LC retention time turned out to be 585 s. The molecule `O=C(CCn1nnc2cc(-c3noc(-c4ccc(F)c(F)c4)n3)ccc21)N1CCCC1` had an RP-LC retention time of 946 s. The value for `Cc1ccc(C2CC(=O)c3cnc(N4CCN(c5ccccc5)CC4)nc3C2)cc1` (stereo unspecified) was 1340 s.

In the case of `CC1CCc2[nH]nc(C(=O)NC3CC3)c2C1` (stereo unspecified), the RP-LC retention time stood at 683 s.

Regarding `CCOC(=O)c1sc(NC(=O)CCCC(=O)O)nc1-c1ccccc1`, the RP-LC retention time stood at 770 s. In turn, `COc1cc(CN2CCc3nc(N4CCCC4)ncc3C2)ccc1OC(C)C` had an RP-LC retention time of 641 s. Then `CCn1c(=O)sc2cc(S(=O)(=O)N3CCC(C(=O)Nc4cccc(C)n4)CC3)ccc21`, with 768 s; and `COc1cc(N2C=C(C(=O)N3CCCC3)S(=O)(=O)c3ccccc32)cc(OC)c1OC`, with 753 s; and `Cc1ccc(-c2noc(Cn3c(=O)n(Cc4ccccc4)c(=O)c4sccc43)n2)cc1C`, with 1160 s. Take `Cc1ccc(C(=O)N2CCc3[nH]cnc3C23CCCC3)c(C)c1`: the RP-LC retention time came to 564 s. Turning to `COCCn1nnnc1C1CC2(CCOCC2)C(=O)N1CCc1ccc(OC)c(OC)c1` (stereo unspecified), the RP-LC retention time was 685 s. Take `Cc1ccccc1OCC(=O)N1CC(CN(C)C)C2(CCOCC2)C1` (stereo unspecified): the RP-LC retention time was 590 s. Consider `Cn1c(=O)c(=O)n(C)c2cc(N3CCCCC3)c(NC(=O)C3CCCCC3)cc21`, for which the RP-LC retention time is 940 s.

The molecule `O=C(NCc1ccccc1)c1ccc2c(c1)Sc1ncccc1C(=O)N2C1CC1` returned an RP-LC retention time of 640 s.

Molecule `Cc1ccc(NC(=O)N2CCC(n3cnnc3C3CC3)C2)cc1` (stereo unspecified) showed an RP-LC retention time of 635 s.

Molecule `COc1ccc(C(O)CN2CCN(c3ccc(OC)cc3)CC2)cc1` (stereo unspecified) showed an RP-LC retention time of 647 s. In turn, `O=C(Cc1cccs1)NCc1nnnn1-c1ccc(F)c(F)c1` returned an RP-LC retention time of 711 s. On to `CC(=O)c1ccc(NC(=O)c2noc3c2CCCC3)cc1`, for which the RP-LC retention time was 871 s.

Molecule `CC(C)(CO)NCc1ccc(-c2cccc(C(F)(F)F)c2)o1` had an RP-LC retention time of 660 s. `CCOC(=O)c1nn(-c2ccccc2)cc1O` came in with an RP-LC retention time of 830 s. Take `CCOC(=O)c1ccc(NC2=NS(=O)(=O)C(c3ccc(F)cc3)=C2C)cc1`: the RP-LC retention time is 948 s. In turn, `O=c1ccc(S(=O)(=O)N2CCCC2)cn1Cc1ccccc1` yielded an RP-LC retention time of 602 s. Then `c1ccc(OCc2nc3ccccc3n2CC2CCN(Cc3ccccn3)CC2)cc1`, with 559 s. For `C=C1C(=O)OC2C1CCC(C)C1(O)C=CC(=O)C21C` (stereo unspecified), the RP-LC retention time came out at 722 s. Turning to `CC(=O)N(Cc1nn(C)c2c1CN(S(=O)(=O)c1cc(C)ccc1C)CC2)c1ccccc1`, the RP-LC retention time is 856 s. The value for `Cc1cc(C)n(-c2ccc(C(=O)NCc3ccc(C(C)C)cc3)cn2)n1` was 1100 s. In the case of `COc1ccc(CNC(=O)Nc2ccccc2NC(=O)c2cccc(Cl)c2)cc1OC`, the RP-LC retention time came to 808 s. As for `c1ccc2c(N3CCOCC3)nnc(N3CCCC3)c2c1`, the RP-LC retention time is 574 s. `COc1ccc(NC(=O)N2CCC3(C2)C(=O)N(C)c2ccccc23)c(OC)c1` (stereo unspecified): the RP-LC retention time was 776 s. The value for `Cc1sc(-c2cc(C(F)(F)F)on2)cc1S(=O)(=O)N1CCN(c2ccc(Cl)cc2)CC1` was 1400 s. On to `CC(C)c1ccc(-c2cc3c4nn(CC(=O)N5CCCC5)c(=O)n4ccn3n2)cc1`, for which the RP-LC retention time was found to be 916 s.

`Cc1ccccc1NS(=O)(=O)c1cn(CC(C)C)c2ncccc12` came in with an RP-LC retention time of 976 s.

In turn, `CC(C)n1c(=O)c2ccccc2n(Cc2nc(-c3ccc(Br)cc3)no2)c1=O` returned an RP-LC retention time of 1230 s.

Turning to `NS(=O)(=O)c1ccc(CCNC(=O)c2ccc3c(c2)NC(=O)C2CCCCN32)cc1` (stereo unspecified), the RP-LC retention time was found to be 672 s. Molecule `Cc1ccc(NC(=O)N2CCN(CCn3cnc4cccnc43)CC2)cc1Cl` returned an RP-LC retention time of 636 s. `Cc1cc(C(F)(F)F)nc(Nc2nc(C)c3ccccc3n2)n1` came in with an RP-LC retention time of 679 s. As to `CCOc1ccc(S(=O)(=O)N2CCC(C(=O)N3CCc4ccccc4C3)CC2)cc1`, the RP-LC retention time was 985 s. `CCc1nc2cc(N3CCCC(C(=O)NCCOC)C3)cnc2nc1CC` (stereo unspecified) came in with an RP-LC retention time of 662 s.

For the molecule `CCCc1noc(-c2cccnc2N2CCCN(Cc3cc(C)ccc3C)CC2)n1`, the RP-LC retention time came to 790 s. Consider `CCOC(=O)c1sc2ncnc(N3CCN(c4ccccc4OC)CC3)c2c1C`, for which the RP-LC retention time was found to be 1200 s. `Cc1nc(CSc2ncnc3sc4c(c23)CCC4)cs1` displayed an RP-LC retention time of 1040 s.

As for `COc1ccc(C(=O)N2CCC(c3cc(N)on3)CC2)c(OC)c1`, the RP-LC retention time is 658 s.

`O=C(c1[nH]nc2c1CCc1ccccc1-2)N1CCC(c2noc(-c3ccccn3)n2)C1` (stereo unspecified) displayed an RP-LC retention time of 776 s. For the molecule `CCCn1cc2c3c(cccc31)CN(C(=O)Nc1cccc(C)c1)CC2`, the RP-LC retention time turned out to be 1070 s.

Regarding `CN(C)c1nn(CC(=O)NCc2cccc(C(F)(F)F)c2)cc1-c1ccccc1`, the RP-LC retention time turned out to be 984 s.

Consider `CC(C)(C)NC(=O)N1CCC(CNC(=O)c2ccc3nsnc3c2)CC1`, for which the RP-LC retention time was determined as 679 s.

Regarding `Cc1sc(NC(=O)c2ccccc2)c(C(Nc2ccccn2)c2cccs2)c1C` (stereo unspecified), the RP-LC retention time is 746 s.

The molecule `Cn1cc(-c2cc3n(n2)CCC(=O)N3CC(=O)N2CCN(c3ccccn3)CC2)c2ccccc21` displayed an RP-LC retention time of 626 s.

For the molecule `O=C(Nc1ccccc1F)N1CC2CN(S(=O)(=O)c3ccc(F)cc3)CC(C1)O2`, the RP-LC retention time stood at 758 s. `CCOc1ccc(-n2c(CN3CCN(C(=O)NC4CCCC4)CC3)nc3cccnc32)cc1` registered an RP-LC retention time of 636 s. The molecule `CCOC(=O)c1c(C)[nH]c(C(=O)N2CCC(C(C)C(=O)NCc3ccc(OC(C)C)cc3)CC2)c1C` (stereo unspecified) returned an RP-LC retention time of 892 s. Take `Cc1cnc(C(=O)NCC23CCC=C2N(C)C(=O)CC3)cn1` (stereo unspecified): the RP-LC retention time came out at 666 s.

For `Cc1ccc(N2CCN(c3nc(C(=O)O)cs3)CC2)cc1`, the RP-LC retention time came out at 770 s. Turning to `O=C(NCCc1csc(-c2ccccc2)n1)C1CCN(C(=O)Cc2cccs2)CC1`, the RP-LC retention time worked out at 794 s. In the case of `Cc1cccc(-c2noc(CN3N=NC4C(=O)N(c5cccc(Cl)c5)C(=O)C43)n2)c1` (stereo unspecified), the RP-LC retention time worked out at 1060 s. As for `O=C(NCc1ccco1)C1CCN(c2ccc(Sc3ccccc3)nn2)CC1`, the RP-LC retention time turned out to be 1060 s. Consider `O=c1c2c(CO)c(-c3ccccc3)nn2ccn1Cc1cccc(F)c1`, for which the RP-LC retention time came out at 920 s. Take `CCOC(=O)N1CCc2c(sc(NC(=O)C3CC3)c2-c2nc3ccccc3s2)C1`: the RP-LC retention time amounted to 905 s. Molecule `Cc1ccc(Cl)cc1NC(=O)Cn1ncc2c(N3CCN(c4ccccn4)CC3)ncnc21` gave an RP-LC retention time of 630 s. The molecule `CCCOc1nc2ccccc2nc1N1CCCC(C(=O)Nc2cc(C)ccc2C)C1` (stereo unspecified) returned an RP-LC retention time of 1340 s. With `CCc1nnc(-c2ccc3ccn(CC(=O)NCCc4sccc4C)c3c2)o1`, the RP-LC retention time was found to be 1170 s. With `Cc1nc(C(N)=O)nc2ccccc12`, the RP-LC retention time was found to be 657 s.

Regarding `CCc1ccc(NC(=O)Cn2c(=O)nc(N3CCC(C)CC3)c3ccccc32)cc1`, the RP-LC retention time came out at 921 s. Then `Cn1c(=O)c(N2CCN(C(=O)c3ccc(Cl)cc3)CC2)nc2ccncc21`, with 560 s; and `COc1ccc(NC(=O)N2CCC3(CC2)NC(=O)c2ccccc2O3)cc1`, with 712 s; and `CCN(Cc1ccc(F)cc1)Cc1cc(=O)n2cc(Cl)ccc2n1`, with 578 s.

Consider `CCCOc1ccc(C(=O)Nc2nnc(C3CC(=O)N(c4ccc(Cl)cc4)C3)o2)cc1` (stereo unspecified), for which the RP-LC retention time was 909 s. `CC1=NOC(C)(CNC(=O)NC2CCCCC2)C1` (stereo unspecified) yielded an RP-LC retention time of 659 s. The value for `O=C(Cc1cn(Cc2ccc(Cl)cc2)c2ccccc12)NCc1ccccn1` was 700 s; that for `CC(C)C(=O)Nc1ccc2c(c1)N(C(=O)c1ccco1)CCC2` was 743 s; that for `COc1ccccc1-c1ccc(N2CCN(C(=O)c3ccccc3Cl)CC2)nn1` was 626 s.

As for `C=CCN1C(=O)C2(c3cc(Br)ccc31)c1[nH]c3ccccc3c1CCN2C(C)=O` (stereo unspecified), the RP-LC retention time came out at 929 s. `Cc1nc(N2CCN(C(c3ccccc3)c3ccccc3)CC2)nc2c1C(=O)CC(c1cccs1)C2` (stereo unspecified) showed an RP-LC retention time of 1150 s.

`CC(O)(CCc1ccccc1)CNC(=O)CN1C(=O)CCC1=O` (stereo unspecified) registered an RP-LC retention time of 631 s. Regarding `O=C(CSc1ccc(N2CCCC(C(=O)NC3CC3)C2)nn1)NCc1cccs1` (stereo unspecified), the RP-LC retention time was 593 s.

Molecule `O=C(Nc1ccc(N2CCN(C3CCCCC3)C2=O)nc1)c1ccccc1F` showed an RP-LC retention time of 850 s.

Source of the values: the METLIN SMRT retention time set (Domingo-Almenara et al. 2019).
